Laboratory results: patent US10683297B2 (Sunshine Lake Pharma Co., Ltd., priority 2017, dated 2020)
pIC50: −log10 of the molar value.

Experiments:
[1] = Compound stability in human liver microsomes; format: in vitro ADME; conditions: for half-life at 5 μM: human liver microsomes 0.5 mg protein/mL, compound 5 μM, NADPH 1.0 mM, pH 7.4, 37° C., read-out: Human T1/2; for CLint scaled at 5 μM: liver microsomes, pH 7.4, in vivo CLint extrapolated from human liver microsome incubation
Method in brief: (§1)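 Compounds (5 μM) incubated at 37 °C with human or rat liver microsomes (0.5 mg protein/mL) and 1.0 mM NADPH in 100 mM phosphate buffer pH 7.4, 0.05% DMSO, in duplicate. Sampled 0–60 min, quantified by LC/MS/MS as % of time zero; CLint extrapolated.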

JAK2 (h) = biological target: T1, JAK2 (h) (Homo sapiens, UniProt O60674); test: JAK2 (h) kinase assay; format: biochemical; conditions: [γ-33P-ATP] 10 μM or KM values; 40 minutes at room temperature
T1 construct: purchased Millipore UK Ltd (assays performed there as a service)
T1 sequence (O60674 whole entry): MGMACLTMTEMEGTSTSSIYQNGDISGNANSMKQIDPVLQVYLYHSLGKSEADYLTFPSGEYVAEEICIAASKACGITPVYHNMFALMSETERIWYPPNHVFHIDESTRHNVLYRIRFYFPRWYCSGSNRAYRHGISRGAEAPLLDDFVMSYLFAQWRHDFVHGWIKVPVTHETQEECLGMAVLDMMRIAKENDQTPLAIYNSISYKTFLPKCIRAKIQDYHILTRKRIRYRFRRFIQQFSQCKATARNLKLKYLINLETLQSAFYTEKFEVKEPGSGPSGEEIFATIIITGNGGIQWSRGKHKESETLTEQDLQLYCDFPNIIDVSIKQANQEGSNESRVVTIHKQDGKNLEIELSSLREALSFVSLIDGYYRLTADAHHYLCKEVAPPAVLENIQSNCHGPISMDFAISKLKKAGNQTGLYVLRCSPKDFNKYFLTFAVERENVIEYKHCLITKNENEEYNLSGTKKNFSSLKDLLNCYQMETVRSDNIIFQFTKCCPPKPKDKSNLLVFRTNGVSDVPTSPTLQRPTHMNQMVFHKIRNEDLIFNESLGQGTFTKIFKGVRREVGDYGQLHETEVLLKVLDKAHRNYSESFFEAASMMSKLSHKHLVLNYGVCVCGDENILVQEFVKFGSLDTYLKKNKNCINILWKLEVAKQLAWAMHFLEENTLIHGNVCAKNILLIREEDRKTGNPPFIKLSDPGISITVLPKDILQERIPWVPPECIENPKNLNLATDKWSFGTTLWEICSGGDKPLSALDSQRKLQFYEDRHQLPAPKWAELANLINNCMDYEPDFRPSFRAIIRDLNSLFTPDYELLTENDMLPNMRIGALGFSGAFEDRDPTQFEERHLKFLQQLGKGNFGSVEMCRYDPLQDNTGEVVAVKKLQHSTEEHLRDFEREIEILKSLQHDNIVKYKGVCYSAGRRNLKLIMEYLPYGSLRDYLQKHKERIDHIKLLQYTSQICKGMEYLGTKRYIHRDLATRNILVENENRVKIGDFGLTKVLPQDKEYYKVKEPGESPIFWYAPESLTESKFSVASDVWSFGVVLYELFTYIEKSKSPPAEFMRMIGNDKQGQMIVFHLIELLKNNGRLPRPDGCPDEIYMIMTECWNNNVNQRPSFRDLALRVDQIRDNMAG
Method in brief: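 Radiometric filter-binding assay run at Millipore: human JAK2 with 100 μM peptide substrate in 8 mM MOPS pH 7.0, 0.2 mM EDTA, 10 mM MgAcetate, [γ-^33P]ATP at 10 μM or KM, 40 min at room temperature. Acid-stopped, spotted on P30 filtermat, scintillation counted; IC50 from 10-point ½-log curve.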

[2] = Compound stability in rat liver microsomes; format: in vitro ADME; conditions: for CLint scaled at 5 μM: liver microsomes, pH 7.4, in vivo CLint extrapolated from rat liver microsome incubation; for half-life at 5 μM: rat liver microsomes 0.5 mg protein/mL, compound 5 μM, NADPH 1.0 mM, pH 7.4, 37° C., read-out: Rat T1/2
Method in brief: as §1

Work on CC(C)(O)c1cn2ccc(Nc3ncc(Cl)c(NC4CCN(c5ccc(C#N)cn5)CC4)n3)cc2n1 [Example 70, 6-(4-((5-chloro-2-((2-(2-hydroxypropan-2-yl)imidazo[1,2-a]pyridin-7-yl)amino)pyrimidin-4-yl)amino)piperidin-1-yl)nicotinonitrile] yielded a half-life at 5 μM [1] of 10.3 min, a CLint scaled at 5 μM [1] of 168 mL/min/kg and a pIC50 (JAK2 (h)) of 8.10. It also gave a CLint scaled at 5 μM [2] of 528 mL/min/kg and a half-life at 5 μM [2] of 4.71 min.

Compound CC(C)(O)Cc1cn2cc(Nc3ncc(Cl)c(NC4CCN(c5ccc(C#N)cn5)CC4)n3)ccc2n1 [Example 73, 6-(4-((5-chloro-2-((2-(2-hydroxy-2-methylpropyl)imidazo[1,2-a]pyridin-6-yl)amino)pyrimidin-4-yl)amino)piperidin-1-yl)nicotinonitrile] has a half-life at 5 μM [1] of 42 min, a CLint scaled at 5 μM [1] of 41.3 mL/min/kg and a pIC50 (JAK2 (h)) of 8.30. The CLint scaled at 5 μM [2] was 214 mL/min/kg and the half-life at 5 μM [2] was 11.6 min.

In the case of CC(C)(O)Cc1nnc2cc(Nc3ncc(Cl)c(NC4CCN(c5ccc(C#N)cn5)CC4)n3)ccn12 [Example 74, 6-(4-((5-chloro-2-((3-(2-hydroxy-2-methylpropyl)-[1,2,4]triazolo[4,3-a]pyridin-7-yl)amino)pyrimidin-4-yl)amino)piperidin-1-yl)nicotinonitrile], the half-life at 5 μM [1] was > 60 min, the pIC50 (JAK2 (h)) was 8.40 and the half-life at 5 μM [2] was > 60 min.

With CC(C)(O)Cc1nnc2cc(Nc3ncc(Cl)c(NC4CCN(c5ccc(C#N)nn5)CC4)n3)ccn12 [Example 75, 6-(4-((5-chloro-2-((3-(2-hydroxy-2-methylpropyl)-[1,2,4]triazolo[4,3-a]pyridin-7-yl)amino)pyrimidin-4-yl)amino)piperidin-1-yl)pyridazine-3-carbonitrile] the half-life at 5 μM [1] was > 60 min, the pIC50 (JAK2 (h)) was 8.10 and the half-life at 5 μM [2] was > 60 min.

In the case of CC(C)(O)Cc1nc2cc(Nc3ncc(Cl)c(NC4CCN(c5ccc(C#N)nn5)CC4)n3)ccn2n1 [Example 77, 6-(4-((5-chloro-2-((2-(2-hydroxy-2-methylpropyl)-[1,2,4]triazolo[1,5-a]pyridin-7-yl)amino)pyrimidin-4-yl)amino)piperidin-1-yl)pyridazine-3-carbonitrile], the half-life at 5 μM [1] was 257 min, the CLint scaled at 5 μM [1] was 6.8 mL/min/kg and the pIC50 (JAK2 (h)) was 7.77. For the same compound, the CLint scaled at 5 μM [2] was 38.2 mL/min/kg and the half-life at 5 μM [2] was 65 min.

Work on CC(C)(O)Cc1nc2cc(Nc3ncc(Cl)c(NC4CCN(c5ccc(C#N)cn5)CC4)n3)ccn2n1 [Example 78, 6-(4-((5-chloro-2-((2-(2-hydroxy-2-methylpropyl)-[1,2,4]triazolo[1,5-a]pyridin-7-yl)amino)pyrimidin-4-yl)amino)piperidin-1-yl)nicotinonitrile] yielded a half-life at 5 μM [1] of 35.3 min, a CLint scaled at 5 μM [1] of 49.3 mL/min/kg and a pIC50 (JAK2 (h)) of 8.00. The CLint scaled at 5 μM [2] was 157 mL/min/kg and the half-life at 5 μM [2] was 15.8 min.

With CC(C)(O)Cc1nc2ccc(Nc3ncc(Cl)c(NC4CCN(c5ccc(C#N)nn5)CC4)n3)cn2n1 [Example 79, 6-(4-((5-chloro-2-((2-(2-hydroxy-2-methylpropyl)-[1,2,4]triazolo[1,5-a]pyridin-6-yl)amino)pyrimidin-4-yl)amino)piperidin-1-yl)pyridazine-3-carbonitrile] the half-life at 5 μM [1] was 196 min, the CLint scaled at 5 μM [1] was 8.9 mL/min/kg and the pIC50 (JAK2 (h)) was 6.99. For the same compound, the CLint scaled at 5 μM [2] was 5.1 mL/min/kg and the half-life at 5 μM [2] was 486 min.
